Source: US5587473A, “7-acyl-3-(substituted carbamoyloxy) cephem compounds and process for their preparation” (Eisai Co., Ltd., priority 1990, dated 1996)
In brackets after ≈: the same amount, converted by molar mass.

Legend:
[1] = tested on: Haemophilus influenzae IID1638; assay: MIC against Haemophilus influenzae IID1638; type: cell-based; conditions: Table 1
[2] = tested on: Morganella morganii IID601; assay: MIC against Morganella morganii IID601; type: cell-based; conditions: Table 1
[3] = tested on: Klebsiella pneumoniae IID875; assay: MIC against Klebsiella pneumoniae IID875; type: cell-based; conditions: Table 1
Escherichia coli NIHJ = assay: MIC against Escherichia coli NIHJ; type: cell-based; conditions: Table 1
[4] = tested on: Staphylococcus aureus 209-P; assay: MIC against Staphylococcus aureus 209-P; type: cell-based; conditions: Table 1
[5] = tested on: Serratia marcescens IID620; assay: MIC against Serratia marcescens IID620; type: cell-based; conditions: Table 1
[6] = Bioavailability by oral administration in mice (urinary excretion); type: in vivo; conditions: mouse, urine, 20 mg/kg, CMC-Na suspension; for dose excreted at 6 h: collected during 6 hours, read-out: Recovery in urea
Protocol: Certain representative compounds according to the present invention were each suspended in a CMC-Na solution. The resulting suspension was administered orally to mice at the dosage of 20 mg/kg. Urea excreted during 6 hours after the administration was collected.

[7] = tested on: Haemophilus influenzae E35147; assay: MIC against Haemophilus influenzae E35147; type: cell-based; conditions: Table 4
[8] = tested on: Haemophilus influenzae E35147; assay: Treatment of respiratory-infected mice, Haemophilus influenzae E35147; type: in vivo, mouse infected with Haemophilus influenzae; conditions: mouse, oral, 40 mg/kg, 1 hour after inoculation of 4.3 × 10^5 CFU/mouse; counted 24 hours after infection; limit 1.48, no colony = 1; control 5.73 ± 0.58
Protocol: (§1) A bacterium-containing solution was inoculated into the nasal cavity of each mouse, followed by the oral administration of a suspension of one of the compounds in a CMC-Na solution one hour later where the bacterium was Haemophilus influenzae but four hours later where the bacterium was Klebsiella pneumoniae. The number of intrapulmonary viable cells of the bacterium was counted upon an elapsed time of 24 hours after the infection. The measurement limit is represented by the following formula. Log CFU/Lung=1.48 wherein CFU is the colony forming unit. When no colony was observed, the bacterium was regarded as having been eradicated and Log CFU/Lung was calculated to be 1.

[9] = tested on: Klebsiella pneumonia E02033; assay: MIC against Klebsiella pneumonia E02033; type: cell-based; conditions: Klebsiella pneumoniae, Table 3
[10] = tested on: Klebsiella pneumonia E02033; assay: Treatment of respiratory-infected mice, Klebsiella pneumonia E02033; type: in vivo, mouse infected with Klebsiella pneumonia; conditions: mouse, oral, 10 mg/kg; for Intrapulmonary viable cells: 4 hours after inoculation of 1.4 × 10^3 CFU/mouse, counted 24 hours after infection, limit 1.48, no colony = 1, control 7.31 ± 0.73; for Eradication rate: inoculum 1.4 × 10^3 CFU/mouse, 24 hours after infection, control 0
Protocol: as §1

Compound | MIC [1] [µg/mL] | MIC [2] [µg/mL] | MIC [3] [µg/mL] | MIC (Escherichia coli NIHJ) [µg/mL] | MIC [4] [µg/mL] | MIC [5] [µg/mL] | bioavailability at 6 h [6] [%] | dose excreted at 6 h [6] [%] | MIC [7] [µg/mL] | Intrapulmonary viable cells [8] [Log CFU/Lung] | also measured
1-(Isopropoxycarbonyloxy)ethyl 7β-[2-(2-aminothiazol-4-yl)-2-(Z)-acetoxyiminoacetamido]-3-N,N-dimethylcarbamoyloxymethyl-3-cephem-carboxylate hydrochloride [Example 40] | 0.2 | 0.05 | 0.05 | 0.05 | 0.2 | 0.1 | – | – | – | – | –
CC(C)OC(=O)OC(C)OC(=O)C1=C(COC(N)=O)CS[C@@H]2C(NC(=O)/C(=N\O)c3csc(N)n3)C(=O)N12 (some centres unmarked) [Compound C, 1-(Isopropyloxycarbonyloxy)ethyl 7-[(Z)-2-(2-aminothiazol-4-yl)-2-hydroxyiminoacetamido]-3-carbamoyloxymethyl-3-cephem-4-carboxylate, reference compound] | – | – | – | – | – | – | 7 | 4.5 | 0.8 (≈ 1.4 µM) | 5.50 ± 0.61 | –
C=CC1=C(C(=O)O)N2C(=O)C(NC(=O)/C(=N\O)c3csc(N)n3)[C@H]2SC1 (some centres unmarked) [Compound F, 7-[(Z)-2-(2-aminothiazol-4-yl)-2-hydroxyiminoacetamido]-3-vinyl-3-cephem-4-carboxylic acid] | – | – | – | – | – | – | – | – | 0.8 (≈ 2.02 µM) | 5.16 ± 0.73 | MIC [9]: 0.2 µg/mL (≈ 0.506 µM); Intrapulmonary viable cells [10]: 6.25 ± 0.74 log CFU/lung; Eradication rate [10]: 0%
CC(C)(C)C(=O)OCOC(=O)C1=C(COC(N)=O)CS[C@@H]2C(NC(=O)/C(=N\O)c3csc(N)n3)C(=O)N12 (some centres unmarked) [Compound B, Pivaloyloxymethyl 7-[(Z)-2-(2-aminothiazol-4-yl)-2-hydroxyiminoacetamido]-3-carbamoyloxymethyl-3-cephem-4-carboxylate, reference compound] | – | – | – | – | – | – | 17 | 11 | – | – | –
CC(=O)O/N=C(\C(=O)NC1C(=O)N2C(C(=O)OC(C)OC(=O)OC(C)C)=C(COC(=O)N(C)C)CSC12)c1csc(N)n1 (stereo not drawn) [Example 43, 1-(Isopropoxycarbonyloxy)ethyl 7β-[2-(2-aminothiazol-4-yl)-2-(Z)-acetoxyiminoacetamido]-3-N,N-dimethylcarbamoyloxymethyl-3-cephem-carboxylate] | – | – | – | – | – | – | – | – | 0.2 (≈ 0.311 µM) | 4.86 ± 0.60 | –
CO/N=C(\C(=O)NC1C(=O)N2C(C(=O)OCOC(=O)C(C)(C)C)=C(COC(N)=O)CS[C@H]12)c1csc(N)n1 (some centres unmarked) [Compound D, Pivaloyloxymethyl 7-[(Z)-2-(2-aminothiazol-4-yl)-2-methoxyiminoacetamido]-3-carbamoyloxymethyl-3-cephem-4-carboxylate, reference compound] | – | – | – | – | – | – | 17 | 10.4 | – | – | –
CN(C)C(=O)OCC1=C(C(=O)OCOC(=O)C(C)(C)C)N2C(=O)C(NC(=O)/C(=N\O)c3csc(N)n3)C2SC1 (centres unmarked) [Example 14, Pivaloyloxymethyl 7-[(Z)-2-(2-aminothiazol-4-yl)-2-hydroxyiminoacetamido]-3-N,N-dimethylcarbamoyloxymethyl-3-cephem-4-carboxylate] | – | – | – | – | – | – | 38 | 18.2 | – | – | –
1-(Isopropoxycarbonyloxy)ethyl 7β-[2-(2-aminothiazol-4-yl)-2-(Z)-hydroxyiminoacetamido]-3-N,N-dimethylcarbamoyloxymethyl-3-cephem-carboxylate hydrochloride [Example 41] | 0.2 | 0.1 | 0.2 | 0.2 | 0.2 | 0.1 | – | – | – | – | –
COCC1=C(C(=O)OC(C)OC(=O)OC(C)C)N2C(=O)C(NC(=O)/C(=N\OC)c3csc(N)n3)[C@H]2SC1 (some centres unmarked) [Compound E, 1-(Isopropyloxycarbonyloxy)ethyl 7-[(Z)-2-(2-aminothiazol-4-yl)-2-methoxyiminoacetamido]-3-methoxymethyl-3-cephem-4-carboxylate] | – | – | – | – | – | – | – | – | – | – | MIC [9]: 0.2 µg/mL (≈ 0.359 µM); Intrapulmonary viable cells [10]: 4.26 ± 0.62 log CFU/lung; Eradication rate [10]: 0%
Benzhydryl 7-formamido-3-N,N-dimethylcarbamoyloxymethyl-3-cephem-4-carboxylate [Example 38] | 0.2 | 0.05 | 0.025 | 0.025 | 0.1 | 0.05 | – | – | – | – | –
CO/N=C(\C(=O)NC1C(=O)N2C(C(=O)OCOC(=O)C(C)(C)C)=C(COC(=O)N(C)C)CSC12)c1csc(N)n1 (centres unmarked) [Example 24, Pivaloyloxymethyl 7-[(Z)-2-(2-aminothiazol-4-yl)-2-methoxyiminoacetamido]-3-N,N-dimethylcarbamoyloxymethyl-3-cephem-4-carboxylate] | – | – | – | – | – | – | 34 | 20 | – | – | –
7-Amino-3-N,N-dimethylcarbamoyloxymethyl-3-cephem-4-carboxylic acid [Example 39] | 0.2 | 0.05 | 0.025 | 0.05 | 0.2 | 0.05 | – | – | – | – | –
CC(C)OC(=O)OC(C)OC(=O)C1=C(COC(=O)N(C)C)CSC2C(NC(=O)/C(=N\O)c3csc(N)n3)C(=O)N12 (centres unmarked) [Example 20, 1-(Isopropyloxycarbonyloxy)ethyl 7-[(Z)-2-(2-aminothiazol-4-yl)-2-hydroxyiminoacetamido]-3-N,N-dimethylcarbamoyloxymethyl-3-cephem-4-carboxylate] | – | – | – | – | – | – | 46 | 22 | 0.1 (≈ 0.166 µM) | 3.51 ± 0.37 | MIC [9]: 0.1 µg/mL (≈ 0.166 µM); Intrapulmonary viable cells [10]: 1.66 ± 1.02 log CFU/lung; Eradication rate [10]: 50%
